# Source: ChEMBL document CHEMBL6127052, “Discovery of membrane-targeting amphiphilic honokiol derivatives containing an oxazolethione moiety to combat methicillin-resistant Staphylococcus aureus (MRSA) infections” (Eur J Med Chem, 2024)
# Activity calls are given as the source filed them. No cut-off for these calls is given here.
# Assays:
# Staphylococcus aureus [1] = assay: Antibacterial activity against methicillin-resistant Staphylococcus aureus clinical isolate M12 infected in KM mouse assessed as decrease in erythematous pustules at infected skin on back of animal at 5 mg/kg, sc measured after 24 hrs; format: functional, organism-based
# Staphylococcus aureus [2] = assay: Antibacterial activity against methicillin-resistant Staphylococcus aureus clinical isolate M12 infected in KM mouse assessed as decrease in erythematous pustules in intradermal tissues at 5 mg/kg, sc measured after 24 hrs; format: functional, organism-based
# Staphylococcus aureus [3] = assay: Antibacterial activity against methicillin-resistant Staphylococcus aureus clinical isolate M12 infected in KM mouse assessed as decrease in bacterial load in skin tissues at 5 mg/kg, sc measured after 24 hrs by drop-plate counting method (reference value: 6.7); format: functional
# Staphylococcus aureus [4] = assay: Antibacterial activity against methicillin-resistant Staphylococcus aureus clinical isolate M12 infected in KM mouse assessed as decrease in bacterial survival rate at 5 mg/kg, sc measured after 24 hrs by drop-plate counting method relative to control; format: functional
# Staphylococcus aureus [5] = assay: Antibacterial activity against methicillin-resistant Staphylococcus aureus clinical isolate M12 infected in KM mouse assessed as reduction in TNF-alpha level at infection site at 5 mg/kg, sc measured after 24 hrs by ELISA; format: functional
# Staphylococcus aureus [6] = assay: Antibacterial activity against methicillin-resistant Staphylococcus aureus clinical isolate M12 infected in KM mouse assessed as reduction in IL-6 level at infection site at 5 mg/kg, sc measured after 24 hrs by ELISA; format: functional
# [7] = Toxicity in KM mouse infected with methicillin-resistant Staphylococcus aureus clinical isolate M12 assessed as damage in heart at 5 mg/kg, sc measured after 24 hrs by H and E staining based analysis; format: organism-based; conditions: in vivo
# [8] = Toxicity in KM mouse infected with methicillin-resistant Staphylococcus aureus clinical isolate M12 assessed as damage in lung at 5 mg/kg, sc measured after 24 hrs by H and E staining based analysis; format: organism-based; conditions: in vivo
# [9] = Toxicity in KM mouse infected with methicillin-resistant Staphylococcus aureus clinical isolate M12 assessed as damage in liver at 5 mg/kg, sc measured after 24 hrs by H and E staining based analysis; format: organism-based; conditions: in vivo
# [10] = Toxicity in KM mouse infected with methicillin-resistant Staphylococcus aureus clinical isolate M12 assessed as damage in spleen at 5 mg/kg, sc measured after 24 hrs by H and E staining based analysis; format: organism-based; conditions: in vivo
# [11] = Toxicity in KM mouse infected with methicillin-resistant Staphylococcus aureus clinical isolate M12 assessed as damage in kidney at 5 mg/kg, sc measured after 24 hrs by H and E staining based analysis; format: organism-based; conditions: in vivo
# [12] = Toxicity in KM mouse infected with methicillin-resistant Staphylococcus aureus clinical isolate M12 assessed as histopathological abnormality in heart at 5 mg/kg, sc measured after 24 hrs by H and E staining based analysis; format: organism-based; conditions: in vivo
# [13] = Toxicity in KM mouse infected with methicillin-resistant Staphylococcus aureus clinical isolate M12 assessed as histopathological abnormality in lung at 5 mg/kg, sc measured after 24 hrs by H and E staining based analysis; format: organism-based; conditions: in vivo
# [14] = Toxicity in KM mouse infected with methicillin-resistant Staphylococcus aureus clinical isolate M12 assessed as histopathological abnormality in liver at 5 mg/kg, sc measured after 24 hrs by H and E staining based analysis; format: organism-based; conditions: in vivo
# [15] = Toxicity in KM mouse infected with methicillin-resistant Staphylococcus aureus clinical isolate M12 assessed as histopathological abnormality in spleen at 5 mg/kg, sc measured after 24 hrs by H and E staining based analysis; format: organism-based; conditions: in vivo
# [16] = Toxicity in KM mouse infected with methicillin-resistant Staphylococcus aureus clinical isolate M12 assessed as histopathological abnormality in kidney at 5 mg/kg, sc measured after 24 hrs by H and E staining based analysis; format: organism-based; conditions: in vivo
# Staphylococcus aureus [17] = assay: (§1) Antibacterial activity against methicillin-resistant Staphylococcus aureus clinical isolate M12 infected in sepsis BALB/c mouse model assessed as decrease in bacterial load in liver at 12 mg/kg, ip administered consecutively at 12 hr-interval for 24 hrs measured after 24 hrs post-last dose; format: functional; conditions: time 48 hrs
# Staphylococcus aureus [18] = assay: Antibacterial activity against methicillin-resistant Staphylococcus aureus clinical isolate M12 infected in sepsis BALB/c mouse model assessed as decrease in bacterial load in kidney at 12 mg/kg, ip administered consecutively at 12 hr-interval for 24 hrs measured after 24 hrs post-last dose; format: functional; conditions: time 48 hrs
# Staphylococcus aureus [19] = assay: Antibacterial activity against methicillin-resistant Staphylococcus aureus clinical isolate M12 infected in sepsis BALB/c mouse model assessed as decrease in bacterial load in spleen at 12 mg/kg, ip administered consecutively at 12 hr-interval for 24 hrs measured after 24 hrs post-last dose; format: functional; conditions: time 48 hrs
# [20] = Toxicity in sepsis BALB/c mouse model infected with methicillin-resistant Staphylococcus aureus clinical isolate M12 assessed as survival rate at 12 mg/kg, ip administered consecutively at 12 hr-interval for 7 days measured after 24 hrs post-last dose; format: organism-based; conditions: in vivo, 192 h, time 8 day
# Staphylococcus aureus [21] = assay: as §1, with “necrosis” for “bacterial load”, “hepatocytes” for “liver”, “dose by H and E staining based analysis” for “dose”; format: functional, organism-based; conditions: time 48.0 hrs
# Staphylococcus aureus [22] = assay: as §1, with “degeneration of hepatocytes” for “bacterial load in liver”, “dose by H and E staining based analysis” for “dose”; format: functional, organism-based; conditions: time 48.0 hrs
# Staphylococcus aureus [23] = assay: (§2) Antibacterial activity against methicillin-resistant Staphylococcus aureus clinical isolate M12 infected in sepsis BALB/c mouse model assessed as decrease in pathological change in red medulla of spleen at 12 mg/kg, ip administered consecutively at 12 hr-interval for 24 hrs measured after 24 hrs post-last dose by H and E staining based analysis; format: functional, organism-based; conditions: time 48.0 hrs
# Staphylococcus aureus [24] = assay: as §2, with “in white” for “in red”; format: functional, organism-based; conditions: time 48.0 hrs
# Staphylococcus aureus [25] = assay: as §2, with “degeneration” for “pathological change in red medulla”, “renal tubular epithelial cells” for “spleen”; format: functional, organism-based; conditions: time 48.0 hrs
# Staphylococcus aureus [26] = assay: as §2, with “necrosis” for “pathological change”, “renal tubular epithelial cells” for “red medulla of spleen”; format: functional, organism-based; conditions: time 48.0 hrs
# Staphylococcus aureus [27] = assay: Induction of resistance development in Staphylococcus aureus ATCC 29213 assessed as increase in MIC at 0.5 times MIC treated for 4 days of consecutive passages; format: functional, organism-based; conditions: time 4.0 day
# Staphylococcus aureus [28] = assay: Induction of resistance development in Staphylococcus aureus ATCC 29213 assessed as fold increase in MIC at 0.5 times MIC treated for 18 days of consecutive passages; format: functional; conditions: time 18 day
# Staphylococcus aureus [29] = assay: Antibacterial activity against Staphylococcus aureus ATCC 29213 by CLSI based micro-broth dilution method; format: functional
# Staphylococcus aureus [30] = assay: Antibacterial activity against methicillin-resistant Staphylococcus aureus N315 by CLSI based micro-broth dilution method; format: functional
# Staphylococcus aureus [31] = assay: Antibacterial activity against methicillin-resistant Staphylococcus aureus clinical isolate M11 by CLSI based micro-broth dilution method; format: functional
# Staphylococcus aureus [32] = assay: Antibacterial activity against methicillin-resistant Staphylococcus aureus clinical isolate M12 by CLSI based micro-broth dilution method; format: functional
# Staphylococcus aureus [33] = assay: Antibacterial activity against methicillin-resistant Staphylococcus aureus clinical isolate M13 by CLSI based micro-broth dilution method; format: functional
# Staphylococcus aureus [34] = assay: Antibacterial activity against methicillin-resistant Staphylococcus aureus clinical isolate M14 by CLSI based micro-broth dilution method; format: functional
# Staphylococcus aureus [35] = assay: Antibacterial activity against methicillin-resistant Staphylococcus aureus clinical isolate M16 by CLSI based micro-broth dilution method; format: functional
# Staphylococcus aureus [36] = assay: Antibacterial activity against methicillin-resistant Staphylococcus aureus clinical isolate M17 by CLSI based micro-broth dilution method; format: functional
# Staphylococcus aureus [37] = assay: Antibacterial activity against methicillin-resistant Staphylococcus aureus clinical isolate M20 by CLSI based micro-broth dilution method; format: functional
# Staphylococcus aureus [38] = assay: Antibacterial activity against methicillin-resistant Staphylococcus aureus clinical isolate M21 by CLSI based micro-broth dilution method; format: functional
# Staphylococcus aureus [39] = assay: Antibacterial activity against methicillin-resistant Staphylococcus aureus clinical isolate M22 by CLSI based micro-broth dilution method; format: functional
# Staphylococcus aureus [40] = assay: Antibacterial activity against methicillin-resistant Staphylococcus aureus clinical isolate M23 by CLSI based micro-broth dilution method; format: functional
# Escherichia coli = assay: Antibacterial activity against Escherichia coli ATCC 25922 by CLSI based micro-broth dilution method; format: functional
# [41] = Hemolytic activity in sheep erythrocytes incubated for 1 hr by absorbance based assay; format: toxicity, cell-based, Ovis aries, Erythrocyte
# [42] = Selectivity index, ratio of HC50 for hemolytic activity in sheep erythrocytes to MIC for antibacterial activity against Staphylococcus aureus ATCC 29213; format: toxicity, cell-based, RBC
smiles,measurement,setting,value
CN[C@H](CC(C)C)C(=O)N[C@H]1C(=O)N[C@@H](CC(N)=O)C(=O)N[C@H]2C(=O)N[C@H]3C(=O)N[C@H](C(=O)N[C@H](C(=O)O)c4cc(O)cc(O)c4-c4cc3ccc4O)[C@H](O)c3ccc(c(Cl)c3)Oc3cc2cc(c3O[C@@H]2O[C@H](CO)[C@@H](O)[C@H](O)[C@H]2O[C@H]2C[C@](C)(N)[C@H](O)[C@H](C)O2)Oc2ccc(cc2Cl)[C@H]1O [VANCOMYCIN],Activity,Staphylococcus aureus [1],inactive
same,Activity,Staphylococcus aureus [2],inactive
same,Activity,Staphylococcus aureus [3],1.4 log10CFU/g
same,Activity,Staphylococcus aureus [4],93.33%
same,Activity,Staphylococcus aureus [5],96.3 pg/mL
same,Activity,Staphylococcus aureus [6],56.5 pg/mL
same,Activity,[7],Non-Toxic
same,Activity,[8],Non-Toxic
same,Activity,[9],Non-Toxic
same,Activity,[10],Non-Toxic
same,Activity,[11],Non-Toxic
same,Activity,[12],Non-Toxic
same,Activity,[13],Non-Toxic
same,Activity,[14],Non-Toxic
same,Activity,[15],Non-Toxic
same,Activity,[16],Non-Toxic
same,Activity,Staphylococcus aureus [17],1.62 log10CFU/g
same,Activity,Staphylococcus aureus [18],1.48 log10CFU/g
same,Activity,Staphylococcus aureus [19],1.57 log10CFU/g
same,Survival,[20],50%
same,Activity,Staphylococcus aureus [21],Active
same,Activity,Staphylococcus aureus [22],Active
same,Activity,Staphylococcus aureus [23],Active
same,Activity,Staphylococcus aureus [24],Active
same,Activity,Staphylococcus aureus [25],Active
same,Activity,Staphylococcus aureus [26],Active
CCn1cc(C(=O)O)c(=O)c2cc(F)c(N3CCNCC3)cc21 [NORFLOXACIN],Activity,Staphylococcus aureus [27],Active
same,fold change (FC),Staphylococcus aureus [28],128
C=CCc1cc(-c2ccc(OCCC[N+](C)(C)CC(=O)NCCCC)c(CC=C)c2)c2oc(=S)n(Cc3ccc(Br)cc3)c2c1.[Br-],MIC,Staphylococcus aureus [29],32 µg/mL
same,MIC,Staphylococcus aureus [30],32 µg/mL
same,MIC,Staphylococcus aureus [31],16 µg/mL
same,MIC,Staphylococcus aureus [32],16 µg/mL
same,MIC,Staphylococcus aureus [33],16 µg/mL
same,MIC,Staphylococcus aureus [34],16 µg/mL
same,MIC,Staphylococcus aureus [35],16 µg/mL
same,MIC,Staphylococcus aureus [36],16 µg/mL
same,MIC,Staphylococcus aureus [37],16 µg/mL
same,MIC,Staphylococcus aureus [38],16 µg/mL
same,MIC,Staphylococcus aureus [39],32 µg/mL
same,MIC,Staphylococcus aureus [40],16 µg/mL
same,MIC,Escherichia coli,> 128 µg/mL
same,HC50 at 1 h,[41],489 µg/mL
same,selectivity ratio,[42],15.3
C=CCc1cc(-c2ccc(OCCC[N+](C)(C)CC(=O)NCCCC)c(CC=C)c2)c2oc(=S)n(Cc3cccc(OC)c3)c2c1.[Br-],MIC,Staphylococcus aureus [29],8 µg/mL
same,MIC,Staphylococcus aureus [30],8 µg/mL
same,MIC,Staphylococcus aureus [31],4 µg/mL
same,MIC,Staphylococcus aureus [32],4 µg/mL
same,MIC,Staphylococcus aureus [33],8 µg/mL
same,MIC,Staphylococcus aureus [34],4 µg/mL
same,MIC,Staphylococcus aureus [35],4 µg/mL
same,MIC,Staphylococcus aureus [36],8 µg/mL
same,MIC,Staphylococcus aureus [37],4 µg/mL
same,MIC,Staphylococcus aureus [38],4 µg/mL
same,MIC,Staphylococcus aureus [39],16 µg/mL
same,MIC,Staphylococcus aureus [40],8 µg/mL
same,MIC,Escherichia coli,> 128 µg/mL
same,HC50 at 1 h,[41],> 160 µg/mL
same,selectivity ratio,[42],> 20
C=CCc1cc(-c2ccc(OCCC[N+](C)(C)CC(=O)NCCCC)c(CC=C)c2)c2oc(=S)n(Cc3ccc(Br)cc3Br)c2c1.[Br-],MIC,Staphylococcus aureus [29],> 128 µg/mL
same,MIC,Staphylococcus aureus [30],128 µg/mL
same,MIC,Staphylococcus aureus [31],> 128 µg/mL
same,MIC,Staphylococcus aureus [32],> 128 µg/mL
same,MIC,Staphylococcus aureus [33],> 128 µg/mL
same,MIC,Staphylococcus aureus [34],> 128 µg/mL
same,MIC,Staphylococcus aureus [35],> 128 µg/mL
same,MIC,Staphylococcus aureus [36],> 128 µg/mL
same,MIC,Staphylococcus aureus [37],> 128 µg/mL
same,MIC,Staphylococcus aureus [38],> 128 µg/mL
same,MIC,Staphylococcus aureus [39],> 128 µg/mL
same,MIC,Staphylococcus aureus [40],> 128 µg/mL
same,MIC,Escherichia coli,> 128 µg/mL
same,HC50 at 1 h,[41],65.4 µg/mL
same,selectivity ratio,[42],0.5
